Data on 13 compounds can be found in US8314093B2, “2,4-pyrimidinediamine compounds for treating or preventing autoimmune diseases” (Rigel Pharmaceuticals, Inc., priority 2006, dated 2012).

As a reminder, the IC50 is the concentration needed to halve the response being measured.

Molecules are shown by their SMILES. Bounds are passed on as bounds.

This assay deals with cultured human mast cells (CHMC), IgE-induced degranulation. Kind of assay: LD Tryptase assay: CHMC low cell density IgE activation, tryptase release. In kind it is cell-based. The following applies: anti-IgE stimulation, 8 pt. The procedure:
Inhibition of degranulation is measured at both low and high cell density by quantifying the release of the granule specific factors tryptase, histamine and hexosaminidase. Inhibition of release and/or synthesis of lipid mediators is assessed by measuring the release of leukotriene LTC4 and inhibition of release and/or synthesis of cytokines is monitored by quantifying TNF-α, IL-6 and IL-13. Tryptase and hexosaminidase are quantified using fluorogenic substrates as described in their respective examples. Histamine, TNFα, IL-6, IL-13 and LTC4 are quantified using the following commercial ELISA kits: histamine (Immunotech #2015, Beckman Coulter), TNFα (Biosource #KHC3011), IL-6 (Biosource #KMC0061), IL-13 (Biosource #KHC0132) and LTC4 (Cayman Chemical #520211). The protocols of the various assays are provided below.
CHMC Low Cell Density IgE Activation: Tryptase and LTC4 Assays
To duplicate 96-well U-bottom plates (Costar 3799) add 65 ul of compound dilutions or control samples that have been prepared in MT [137 mM NaCl, 2.7 mM KCl, 1.8 mM CaCl2, 1.0 mM MgCl2, 5.6 mM Glucose, 20 mM Hepes (pH 7.4), 0.1% Bovine Serum Albumin, (Sigma A4503)] containing 2% MeOH and 1% DMSO. Pellet CHMC cells (980 rpm, 10 min) and resuspend in pre-warmed MT. Add 65 ul of cells to each 96-well plate. Depending on the degranulation activity for each particular CHMC donor, load 1000-1500 cells/well. Mix four times followed by a 1 hr incubation at 37° C. During the 1 hr incubation, prepare 6× anti-IgE solution [rabbit anti-human IgE (1 mg/ml, Bethyl Laboratories A80-109A) diluted 1:167 in MT buffer]. Stimulate cells by adding 25 ul of 6× anti-IgE solution to the appropriate plates. Add 25 ul MT to un-stimulated control wells. Mix twice following addition of the anti-IgE. Incubate at 37° C. for 30 minutes. During the 30 minute incubation, dilute the 20 mM tryptase substrate stock solution [(Z-Ala-Lys-Arg-AMC 2TFA; Enzyme Systems Products, #AMC-246)] 1:2000 in tryptase assay buffer [0.1 M Hepes (pH 7.5), 10% w/v Glycerol, 10 uM Heparin (Sigma H-4898) 0.01% NaN3]. Spin plates at 1000 rpm for 10 min to pellet cells. Transfer 25 ul of supernatant to a 96-well black bottom plate and add 100 ul of freshly diluted tryptase substrate solution to each well. Incubate plates at room temperature for 30 min. Read the optical density of the plates at 355 nm/460 nm on a spectrophotometric plate reader.
With `COc1ccc(CN2C(=O)C(C)Oc3ccc(Nc4nc(Nc5cc(O)c(OC)c(OC)c5)ncc4F)cc32)cc1` (racemic) [Example 9, (R/S)-5-Fluoro-N2-(3-hydroxy-4,5-dimethoxyphenyl)-N4-[2-methyl-3-oxo-4-(4-methoxybenzyl)-benz[1,4]oxazin-6-yl]-2,4-pyrimidinediamine], the IC50 was under 5000 nM.

Turning to `COc1ccc(CN2C(=O)C(C)Sc3ccc(Nc4nc(Nc5cc(O)c(OC)c(OC)c5)ncc4F)cc32)cc1` (racemic) [Example 10, (R/S)-5-Fluoro-N2-(3-hydroxy-4,5-dimethoxyphenyl)-N4-[2-methyl-3-oxo-4-(4-methoxybenzyl)-benzo[1,4]thiazin-6-yl]-2,4-pyrimidinediamine], the IC50 was under 5000 nM. On to `COc1cc(Nc2ncc(F)c(Nc3ccc4c(c3)NC(=O)CS4)n2)cc(O)c1OC` [Example 1, 5-Fluoro-N2-(3-hydroxy-4,5-dimethoxyphenyl)-N4-[3-oxo-benzo[1,4]thiazin-6-yl]-2,4-pyrimidinediamine], for which the IC50 was under 1000 nM. In the case of `COc1cc(Nc2ncc(F)c(Nc3ccc4c(c3)NC(=O)C(C)(C)S4)n2)cc(O)c1OC` [Example 2, N4-[2,2-Dimethyl-3-oxo-benzo[1,4]thiazin-6-yl]-5-fluoro-N2-(3-hydroxy-4,5-dimethoxyphenyl)-2,4-pyrimidinediamine], the IC50 was under 1000 nM. In the case of `COc1cc(Nc2ncc(F)c(Nc3ccc4c(c3)NC(=O)C(C)(C)O4)n2)cc(O)c1OC` [Example 3, N4-[2,2-Dimethyl-3-oxo-benz[1,4]oxazin-6-yl]-5-fluoro-N2-(3-hydroxy-4,5-dimethoxyphenyl)-2,4-pyrimidinediamine], the IC50 is under 1000 nM. As to `COc1cc(Nc2ncc(F)c(Nc3ccc4c(n3)NC(=O)C(C)(C)O4)n2)cc(O)c1OC` [Example 4, N4-[2,2-Dimethyl-3-oxo-pyrid[1,4]oxazin-6-yl]-5-fluoro-N2-(3-hydroxy-4,5-dimethoxyphenyl)-2,4-pyrimidinediamine], the IC50 was under 1000 nM.

On to `COc1cc(Nc2ncc(F)c(Nc3ccc4c(c3)NC(=O)CO4)n2)cc(O)c1OC` [Example 5, 5-Fluoro-N2-(3-hydroxy-4,5-dimethoxyphenyl)-N4-[3-oxo-benz[1,4]oxazin-6-yl]-2,4-pyrimidinediamine], for which the IC50 is under 1000 nM.

For `COc1cc(Nc2ncc(F)c(Nc3ccc4c(c3)NC(=O)C(F)(F)O4)n2)cc(O)c1OC` [Example 6, N4-[2,2-Difluoro-3-oxo-benz[1,4]oxazin-6-yl]-5-fluoro-N2-(3-hydroxy-4,5-dimethoxyphenyl)-2,4-pyrimidinediamine], the IC50 is under 1000 nM.

`COc1cc(Nc2ncc(F)c(Nc3ccc4c(c3)N(Cc3ccccn3)C(=O)CO4)n2)cc(O)c1OC` [Example 7, 5-Fluoro-N2-(3-hydroxy-4,5-dimethoxyphenyl)-N4[3-oxo-4-(2-pyridylmethyl)-benz[1,4]oxazin-6-yl]-2,4-pyrimidinediamine] displayed an IC50 of under 5000 nM.

Consider `COc1cc(Nc2ncc(F)c(Nc3ccc4c(c3)C(=O)NC(=O)C4(C)C)n2)cc(O)c1OC` [Example 8, 5-Fluoro-N2-(3-hydroxy-4,5-dimethoxyphenyl)-N4-(1,3-(2H)-4,4-dimethylisoquinolinedione-7-yl)-2,4-pyrimidinediamine], for which the IC50 was under 1000 nM.

Take `COc1cc(Nc2ncc(F)c(Nc3ccc4c(c3)N(C)C(=O)C(C)(C)S4(=O)=O)n2)cc(O)c1OC` [Example 11, 5-Fluoro-N2-(3-hydroxy-4,5-dimethoxyphenyl)-N4-(2,2,4-trimethyl-1,1,3-trioxo-benzo[1,4]thiazin-6-yl)-2,4-pyrimidinediamine]: the IC50 was under 1000 nM. On to `COc1cc(Nc2ncc(F)c(Nc3ccc4c(c3)N(C)C(=O)CS4)n2)cc(O)c1OC` [Example 12, 5-Fluoro-N2-(3-hydroxy-4,5-dimethoxyphenyl)-N4-(4-methyl-3-oxo-benzo[1,4]thiazin-6-yl)-2,4-pyrimidinediamine], for which the IC50 is under 1000 nM. In the case of `COc1cc(Nc2ncc(F)c(Nc3ccc4c(n3)NCC(C)(C)O4)n2)cc(O)c1OC` [Example 13, N4-(3,4-Dihydro-2H-2,2-dimethyl-5-pyrido[1,4]oxazin-6-yl)-N2-[3,4-dimethoxyphenyl-5-hydroxyphenyl]-5-fluoro-2,4-pyrimidinediamine], the IC50 is under 1000 nM.
